Assay results reported in patent US12275733B2, “Substituted pyrido[3,4-b]indoles for the treatment of cartilage disorders” (Sanofi, priority 2016, dated 2025).

Key:
[1] = system: primary human chondrocyte pellet cultures; test: Chondrogenesis activity assay in primary human chondrocyte pellet cultures (proteoglycan (aggrecan) induction, Blyscan assay); type: cell-based; details: for EC50: 336 h, proteoglycan (aggrecan) induction, primary human chondrocyte pellets, 2 weeks culture; for Emax: Homo sapiens, Chondrocyte, maximum percent proteoglycan (aggrecan) induction relative to the internal reference compound at 10 μM
Protocol: B) Chondrogenesis Activity Assay in Primary Human Chondrocyte Pellet Cultures
In this assay human articular chondrocytes are harvested by enzymatic digestion from articular cartilage and passaged several times to dedifferentiate the chondrocytes and to propagate the cells. Cells are cultured as cell pellets in the presence of the compounds of the invention over 2 weeks, and the chondrogenic differentiation is quantified by the production of the chondrogenic marker aggrecan (proteoglycan).
In detail, primary chondrocytes were harvested by enzymatic digestion from cartilage of osteoarthritis patients undergoing knee joint replacement surgery, and cultured in vitro. Cells were passaged one or two times and aliquots were cryopreserved. To initiate chondrogenesis experiments, cell aliquots were thawn, cultured in Chondrocyte Growth Medium (CGM, Lonza, #CC-3216) and passaged twice to further propagate and dedifferentiate cells. Pellet cultures were initiated by seeding 2.5×10E5 cells per well into a 96-well deep well plate in 600 μl chondrocyte differentiation medium consisting of Dulbecco's Modified Eagle Medium (DMEM, Invitrogen, #41966), 1×ITS-solution (Insulin/Transferrin/sodium selenite; 100× solution: Invitrogen, #51500056), 5 μg/mL linoleic acid (Sigma, #L1012-1G), 1× nonessential amino acids (100× solution: Invitrogen, #11140); 10 nM Dexamethasone, 2 ng/ml TGF-β1 (transforming growth factor β1) and 10 μg/ml ascorbic acid. Cells were spun to pellets by centrifugation (10 min, 400×g). Test compounds dissolved in DMSO were added to yield increasing compound concentrations, typically from 40 nM to 10 μM, and a final DMSO concentration of 0.1%, and the cell pellets cultured at 37° C., and 5% CO2 for 2 weeks. On each 96-well plate, control wells containing no test compound but the same concentration of DMSO, i.e. untreated cells, were included and used as reference for the determination of the effect of the test compounds on the cells, and wells containing an internal reference compound at a concentration of 10 μM were included and used as positive control and for standardizing the results. Chondrocyte differentiation medium and the compounds were exchanged twice weekly until harvest of the pellets.
For harvest of the pellets, medium was removed and the pellet was homogenized by enzymatic digestion. 100 μl of protease solution containing 0.4 mg/ml papain, 50 mM sodium phosphate, 4 mM EDTA and 0.48 mg/ml L-cysteine was added to the pellet in each well of a 96-well plate, the plate was sealed with a plate sealer foil (SILVERseal, Greiner Bio-One) and incubated for 4 to 6 hours at 65° C. with agitation.
The concentration of proteoglycan (aggrecan) was determined by quantification of the sulfated glycosaminoglycan side chains of aggrecan using the Blyscan assay (Kit from Biocolor). Aliquots of the papain-digest were transferred to 400 μl of Blyscan dye solution and incubated at room temperature for 45 min with agitation (1200 rpm). The mixture was centrifuged at 3760×g for 45 min, the supernatant was discarded, and the stained pellet was redissolved in 400 μl of Blyscan dissociation reagent by rotation until the precipitate completely resolved. Optical density was measured at 656 nm using a Tecan Saphire2 instrument, and the amount of proteoglycan determined against a standard curve with chondroitin-4-sulfate.
Induction of proteoglycan (aggrecan) was calculated for each compound concentration relative to the control (untreated cells, i.e. no test compound added), and an EC50 value (effective concentration 50 (in μM (micromollliter)), i.e. the compound concentration at which the effect of the compound on proteoglycan (aggrecan) induction reaches 50% of the maximum induction) was calculated using a sigmoidal signal fit procedure. […]

[2] = system: ATDC5 cells; test: Chondrogenesis activity assay in ATDC5 cells (collagen type II induction, immunofluorescence); type: cell-based, mouse; details: Mus musculus; for EC50: collagen type II induction in ATDC5 cells, concentration reaching 50% of maximum induction; for Emax: maximum percent induction of collagen type II relative to internal reference compound at 10 μM, ATDC5 cells
Method in brief: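 Mouse ATDC5 cells in insulin (10 μg/ml)-containing DMEM/F12 differentiation medium with 5% FCS were exposed to compound, typically 40 nM–10 μM at 0.1% DMSO, for 4 days at 37 °C. Intracellular collagen type II was quantified by Alexa Fluor 488 immunostaining with high-content imaging, relative to DMSO and a 10 μM reference compound.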

| SMILES | EC50 [2] [µM] | EC50 [1] [µM] | Emax [1] [%] | Emax [2] [%] |
| --- | --- | --- | --- | --- |
| CCc1cc2c([nH]c3c(-c4ccc(OCCn5cccn5)cc4)cc(Br)cc32)c(C)n1 [Example 212, 6-Bromo-3-ethyl-1-methyl-8-[4-(2-pyrazol-1-yl-ethoxy)-phenyl]-9H-pyrido[3,4-b]indole] | > 3.3 | 8.9 | < 40 | < 20 |
| Cc1nccc2c1[nH]c1c(-c3ccnc(N4CCNCC4)c3)cc(Cl)cc12 [Example 213, 6-Chloro-1-methyl-8-(2-piperazin-1-yl-pyridin-4-yl)-9H-pyrido[3,4-b]indole] | > 1.1 | 1.2 | 100 to 200 | < 20 |
| COc1ccc(-c2cc(Br)cc3c2[nH]c2c(C)nc(C)cc23)cc1 [Example 217, 6-Bromo-8-(4-methoxy-phenyl)-1,3-dimethyl-9H-pyrido[3,4-b]indole] | > 3.3 | 4.9 | > 200 | 20 to 50 |
| COc1ccc(-c2cc(Cl)cc3c2[nH]c2c(C)nccc23)nc1N [Example 218, 6-(6-Chloro-1-methyl-9H-pyrido[3,4-b]indol-8-yl)-3-methoxy-pyridin-2-ylamine] | > 1.1 | 40 | < 40 | < 20 |
| Cc1nccc2c1[nH]c1c(-c3ccc(OCC4CCN(C)C4)cc3)cc(Cl)cc12 (centres unmarked) [Example 228, 6-Chloro-1-methyl-8-[4-(1-methyl-pyrrolidin-3-ylmethoxy)-phenyl]-9H-pyrido[3,4-b]indole] | 0.15 | 0.14 | 100 to 200 | 50 to 80 |
| Cc1nccc2c1[nH]c1c(-c3cccc(NC(=O)Nc4ccc(F)cc4F)c3)cc(Cl)cc12 [Example 230, 1-[3-(6-Chloro-1-methyl-9H-pyrido[3,4-b]indol-8-yl)-phenyl]-3-(2,4-difluoro-phenyl)-urea] | > 3.3 | 21 | < 40 | < 20 |
| Cc1nccc2c1[nH]c1c(-c3ccc4c(c3)CC(C)(C)O4)cc(Cl)cc12 [Example 236, 6-Chloro-8-(2,2-dimethyl-2,3-dihydro-benzofuran-5-yl)-1-methyl-9H-pyrido[3,4-b]indole] | > 3.3 | 4.6 | > 200 | < 20 |
| Cc1nccc2c1[nH]c1c(-c3ccnc(F)c3Br)cc(Cl)cc12 [Example 245, 8-(3-Bromo-2-fluoro-pyridin-4-yl)-6-chloro-1-methyl-9H-pyrido[3,4-b]indole] | > 1.1 | 10 | 40 to 100 | < 20 |
| Cc1nccc2c1[nH]c1c(-c3cccc(N4CCOCC4)c3)cc(Cl)cc12 [Example 247, 6-Chloro-1-mehtyl-8-(3-morpholin-4-yl-phenyl)-9H-pyrido[3,4-b]indole] | > 3.3 | 3.8 | > 200 | < 20 |
| Cc1nccc2c1[nH]c1c(-c3cc(C(F)(F)F)cc(C(F)(F)F)c3)cc(Cl)cc12 [Example 251, 8-(3,5-Bis-trifluoromethyl-phenyl)-6-chloro-1-methyl-9H-pyrido[3,4-b]indole] | > 10 | 9.1 | 40 to 100 | < 20 |
| Cc1nccc2c1[nH]c1c(-c3ccc(C(=O)NCCN(C)C)cc3)cc(Cl)cc12 [Example 264, 4-(6-Chloro-1-methyl-9H-pyrido[3,4-b]indol-8-yl)-N-(2-dimethylamino-ethyl)-benzamide] | > 1.1 | 1.5 | 40 to 100 | 20 to 50 |

Now from value to compound, other results behind:

| EC50 [2] [µM] | SMILES | EC50 [1] [µM] | Emax [1] [%] | Emax [2] [%] |
| --- | --- | --- | --- | --- |
| > 10 | COCc1cc(-c2cc(Cl)cc3c2[nH]c2c(C)nccc23)ccc1OC [Example 200, 6-Chloro-8-(4-methoxy-3-methoxymethyl-phenyl)-1-methyl-9H-pyrido[3,4-b]indole] | 4.4 | 100 to 200 | 20 to 50 |
| > 10 | COc1ccc(-c2cc(Cl)cc3c2[nH]c2c(C)nccc23)cc1Cl [Example 206, 6-Chloro-8-(3-chloro-4-methoxy-phenyl)-1-methyl-9H-pyrido[3,4-b]indole] | 19 | < 40 | 20 to 50 |
| 0.28 | CCn1c2c(-c3cnn(C)c3)cc(Br)cc2c2ccnc(C)c21 [Example 209, 6-Bromo-9-ethyl-1-methyl-8-(1-methyl-1H-pyrazol-4-yl)-9H-pyrido[3,4-b]indole] | 2.6 | > 200 | > 80 |
| > 3.3 | Cc1nccc2c1[nH]c1c(-c3ccnc(N4CCN(C)CC4)c3)cc(Cl)cc12 [Example 214, 6-Chloro-1-methyl-8-[2-(4-methyl-piperazin-1-yl)-pyridin-4-yl]-9H-pyrido[3,4-b]indole] | 1.3 | 100 to 200 | < 20 |
| > 10 | CCc1cc2c3cc(Br)cc(-c4cnn(C)c4)c3n(CC)c2c(C)n1 [Example 216, 6-Bromo-3,9-diethyl-1-methyl-8-(1-methyl-1H-pyrazol-4-yl)-9H-pyrido[3,4-b]indole] | 0.99 | > 200 | < 20 |
| > 3.3 | COc1cc(-c2cc(Cl)cc3c2[nH]c2c(C)nccc23)ccc1OCc1cccc(F)n1 [Example 223, 6-Chloro-8-[4-(6-fluoro-pyridin-2-ylmethoxy)-3-methoxy-phenyl]-1-methyl-9H-pyrido[3,4-b]indole] | 27 | < 40 | 20 to 50 |
| > 1.1 | Cc1nccc2c1[nH]c1c(-c3ccc(CN)cc3)cc(Cl)cc12 [Example 241, 4-(6-Chloro-1-methyl-9H-pyrido[3,4-b]indol-8-yl)-benzylamine] | 1.5 | 100 to 200 | 20 to 50 |
| 1.1 | CCn1c2c(-c3cnn(Cc4ccccn4)c3)cc(Cl)cc2c2ccnc(C)c21 [Example 244, 6-Chloro-9-ethyl-1-methyl-8-(1-pyridin-2-ylmethyl-1H-pyrazol-4-yl)-9H-pyrido[3,4-b]indole] | 4.9 | > 200 | > 80 |
| > 3.3 | Cc1nccc2c1[nH]c1c(-c3cccc(C=O)c3)cc(Cl)cc12 [Example 250, 3-(6-Chloro-1-methyl-9H-pyrido[3,4-b]indol-8-yl)-benzaldehyde] | 4.9 | 100 to 200 | 50 to 80 |
| 0.16 | CCn1c2c(-c3ccc(OCC4(C)COC4)cc3)cc(Cl)cc2c2ccnc(C)c21 [Example 256, 6-Chloro-9-ethyl-1-methyl-8-[4-(3-methyl-oxetan-3-ylmethoxy)-phenyl]-9H-pyrido[3,4-b]indole] | 1.3 | > 200 | > 80 |
| > 3.3 | Cc1nccc2c1[nH]c1c(-c3cccc(C(O)c4ccccn4)c3)cc(Cl)cc12 (centres unmarked) [Example 258, [3-(6-Chloro-1-methyl-9H-pyrido[3,4-b]indol-8-yl)-phenyl]-pyridin-2-yl-methanol] | 8.2 | 40 to 100 | < 20 |
| > 1.1 | Cc1nccc2c1[nH]c1c(-c3cccc(C(=O)NCCN(C)C)c3)cc(Cl)cc12 [Example 265, 3-(6-Chloro-1-methyl-9H-pyrido[3,4-b]indol-8-yl)-N-(2-dimethylamino-ethyl)-benzamide] | 3.8 | < 40 | < 20 |
